Read-outs that look alike come from different tables or passages of the source.
What was measured:
[1] = cited from earlier work
[2] = tested on: isometric twitch of the tibialis anterior muscle; assay: Neuromuscular block after intravenous administration: isometric twitch of the tibialis anterior muscle in response to peroneal nerve stimulation, cats; assay type: in vivo; settings: Cat
Source text: (§1) Trans, trans-2,2'-(trimethylenebis(carbonyloxytri- methylene))bis(1,2,3,4-tetrahydro-6,7,8-trimethoxy-2-methyl-1-(3,4,5-trimethoxybenzyl)isoquinolinium) dichloride (prepared as in Example 3) was examined by intravenous administration to cats and Rhesus monkeys, maintained by artificial ventilation and prepared for recording the isometric twitch of the tibialis anterior muscle in response to stimulation of peroneal nerve.

[3] = tested on: isometric twitch of the tibialis anterior muscle; assay: Neuromuscular block after intravenous administration: isometric twitch of the tibialis anterior muscle in response to peroneal nerve stimulation, Rhesus monkeys; assay type: in vivo; settings: Rhesus Monkey
Source text: as §1

[4] = intravenous, time from injection to 95% recovery

## COc1cc2c3cc1Oc1cc(ccc1O)C[C@@H]1c4c(cc(OC)c(O)c4Oc4ccc(cc4)C[C@@H]3N(C)CC2)CC[N+]1(C)C [d-tubocurarine]
[1]; clinical use, compared with intravenous paralysing dose of compounds of formula (I)
  dose of agents most widely used clinically: 0.4 to 0.6 mg/kg

## CC(=O)O[C@H]1C[C@@H]2CC[C@@H]3[C@H](CC[C@@]4(C)[C@H]3C[C@H]([N+]3(C)CCCCC3)[C@@H]4OC(C)=O)[C@@]2(C)C[C@@H]1[N+]1(C)CCCCC1 [pancuronium]
[1]; in vivo
  dose of agents most widely used clinically: 0.06 to 0.08 mg/kg

## COc1cc(CC2c3c(cc(OC)c(OC)c3OC)CC[N+]2(C)CCCOC(=O)CCCC(=O)OCCC[N+]2(C)CCc3cc(OC)c(OC)c(OC)c3C2Cc2cc(OC)c(OC)c(OC)c2)cc(OC)c1OC (stereo not drawn) [Example 1, trans, trans-2,2'-(trimethylenebis(carbonyloxytrimethy-lene))bis(1,2,3,4-tetrahydro-6,7,8-trimethoxy-2-methyl-1-(3,4,5-trimethoxybenzyl)isoquinolinium) dichloride]
[2]; [4]
  Duration: ≃25 Minutes
[2]; Felis catus, intravenous administration, artificial ventilation, 2 animals
  ED95: 0.03 mg/kg
[3]; Macaca mulatta, intravenous administration, artificial ventilation, 4 animals
  ED95: 0.05 mg/kg
[3]; [4]
  Duration: ≃15^+ Minutes

Reference: patent publication EP0080682A1, “Bisisoquinolinium compound, pharmaceutical compositions and synthesis” (THE WELLCOME FOUNDATION LIMITED, priority 1981, dated 1983)
